Reference: patent US20090175905A1, “TRANSFECTION REAGENT AND METHOD FOR ENHANCING TRANSFECTION EFFICIENCY” (National Taiwan University of Science and Technology, priority 2008, published 2009)
Where two headings read alike, the source gives them in different places.

Tests used:
[1] = test system: Chinese hamster ovary (CHO) cells; experiment: In vitro transfection of CHO cells with pEGFP-C1 plasmid and DOTAP liposomes plus disaccharides, GFP by flow cytometer; format: cell-based; conditions: DOTAP liposomes; for effect on transfection efficiency: appropriate amount of disaccharide
Source text: FIG. 2 present the effects of disaccharides on the transgene expression of cultured Chinese hamster ovary (CHO) cells subjected to an in vitro transfection of DNA with a transfection reagent containing DOTAP and various disaccharides. The x-axis in FIG. 2 refers to the disaccharide concentration in the transfection reagent, and the y-axis in FIG. 2 represents the GFP (green fluorescent protein)-positive percentage of the transfected CHO cells measured by a flow cytometer. The GFP-positive percentage of the CHO cells is used as an indicator of transfection efficiency. In the experiments shown in FIG. 2, various concentrations of cellobiose, lactose, sucrose, trehalose and maltose are respectively incorporated into a transfection reagent containing pEGFP-C1 plasmid and DOTAP liposomes, and in vitro transfections are performed with the transfection reagents containing different disaccharides. The GFP-positive percentage of CHO cells is then detected for each transfection reagent sample. […] In other words, the incorporation of a disaccharide into the transfection reagent affects the transfection efficiency. Moreover, the changes in transfection efficiency are related to the type and the concentration of the disaccharide in the transfection reagent. […] More particularly, the transfection efficiency increases from 28% to more than 40% at 180 mM of lactose, sucrose or trehalose in a transfection reagent. The transfection efficiency is doubled when 120 mM of cellobiose is incorporated into a transfection reagent.

[2] = test system: Chinese hamster ovary (CHO) cells; experiment: In vitro transfection of CHO cells with different lipid-based vectors plus disaccharides, GFP-positive percentage; format: cell-based; conditions: 120 mM disaccharide; DOTAP, DOTAP/Chol, DOTAP/DOPE, DC-Chol/DOPE or LPD vector
Source text: FIGS. 3A and 3B present the effects of disaccharides on the transgene expression of cultured Chinese hamster ovary (CHO) cells subjected to an in vitro transfection of DNA with a transfection reagent containing different lipid-based vectors plus different disaccharides. The x-axis in FIGS. 3A and 3B represents the lipid composition, and the y-axis represents the GFP-positive percentage of the transfected CHO cells, which is used as an indicator for transfection efficiency. In the experiments shown in FIGS. 3A and 3B, DOTAP, DOTAP/Chol, DOTAP/DOPE, DC-Chol/DOPE or LPD applied as a vector is incorporated into a pEGFP-C1 plasmid-containing transfection reagent. Thereafter, 120 mM of various disaccharides is incorporated into the transfection reagent, and in vitro cell transfection is performed followed by detecting the cell percentage of GFP expression.

[3] = test system: lung tissues; experiment: In vivo transfection by tail vein injection of gWiz-luciferase plasmid with lipid-based vectors plus disaccharides, luciferase activity in lung; set-up: species or system mouse; conditions: for effect on transfection efficiency (luminescent intensity, lung): DOTAP, DOTAP/Chol or LPD vector, i.v.
Description: FIG. 4A presents the effects of disaccharides on the transgene expression after intravenous injection of DOTAP-based vectors with various disaccharides by way of mouse tail vein. Various concentrations of […] and […] are respectively incorporated into the transfection reagent containing the gWiz-luciferase plasmid and DOTAP liposomes. The transfection reagent is administered via intravenous injection through the tail vein of a 4-6 weeks old ICR (CD-1) […]. The […] is sacrificed 24 hour after the intravenous injection, and the activity of luciferase in the lung tissues of the […] is observed. The x-axis in FIG. 4A represents the disaccharide concentration in the tranfection reagent, and the y-axis in FIG. 4 represents the luminescent intensity, measured by a luminometer and expressed as relative light unit (RLU) per mg of lung tissue protein. The luminescent intensity is used as an indicator of transfection efficiency. […] Accordingly, cellobiose and trehalose can improve the efficiency of cell transfection in vivo, and the transfection efficiency increases as the concentration of the disaccharide increases. FIG. 4B presents the effects of disaccharides on the transgene expression after intravenous injection of different lipid-based vectors with various disaccharides by way of mouse tail vein. DOTAP, DOTAP/chol and LPD are respectively added as a vector into the tranfection reagent containing gWiz-luciferase plasmid. A concentration of 330 mM cellobiose or trehalsoe is incorporated into the transfection reagent. The transfection reagent is then intravenously injected into the animal for cell transfection. The x-axis in FIG. 4B represents the type of the lipid-based vector, and the y-axis in FIG. 4B represents the luminescent intensity, measured by a luminometer and expressed as relative light unit (RLU) per mg of lung tissue protein.

[4] = test system: CHO cells
Source text: (§3) FIG. 5 presents the effects of disaccharides on the cellular cytotoxicity of the in vitro cultured CHO cells transfected with transfection reagents containing lipid-based carriers.

[5] = test system: mouse muscles; experiment: In vivo transfection of muscles by direct intramuscular injection of naked plasmid plus disaccharides, luciferase luminescence; conditions: for luminescent intensity (RLU per mg of muscular tissue protein) versus control group without disaccharides: 10 mM disaccharide
Description: The following experiments are conducted using naked nucleic acid delivery system for directly transfecting plasmid DNA into the cells of animals, and additional viral or non-viral vector is precluded. The transfection reagent is incorporated with various concentrations of disaccharides as an enhancer, and the effects of disaccharides in the naked nucleic acid delivery system on the cell transfection are observed.
FIG. 9 presents the effects of various disaccharides on the transgene expression of mouse muscles after direct intramuscular injection of naked plasmid. The transfection procedures in these experiments are identical to those described previously in experiment 3. The major differences between the two experiments are the vector applied and the method of transfection as well as the administration route into the body of the […]. The x-axis in FIG. 9 represents the types of disaccharides, and the y-axis represents the luminescent intensity, measured by a luminometer and expressed as relative light unit (RLU) per mg of muscular tissue protein, wherein the luminescent intensity is used as an indicator to evaluate the transfection efficiency.
FIG. 10 presents the effects of trehalose concentrations on the transgene expression of mouse muscles after direct intramuscular injection of naked plasmid. The x-axis in FIG. 10 represents the concentrations of trehalose in the transfection reagent, and the y-axis represents the luminescent intensity, measured by a luminometer and expressed as relative light unit (RLU) per mg of muscular tissue protein. The luminescent intensity is used as an indicator to evaluate transfection efficiency.
[…] presents the effects of gene dosage on the transgene expression of mouse muscles in the presence of trehalose after direct intramuscular injection of naked plasmid. The x-axis in FIG. 11 represents the amount of DNA plasmid, and the y-axis represents the luminescent intensity, measured by a luminometer and expressed as relative light unit (RLU) per mg of muscular tissue protein, wherein the luminescent intensity is used as an indicator to evaluate the transfection efficiency.
FIG. 12 presents the effects of the trehalose on the durations of transgene expression of mouse muscles after direct intramuscular injection of naked plasmid. The x-axis in FIG. 12 represents the days after the intramuscular injection, and the y-axis represents the luminescent intensity, measured by a luminometer and expressed as relative light unit (RLU) per mg of muscular tissue protein, wherein the luminescent intensity is used as an indicator to evaluate the transfection efficiency of gWiz-luciferase plasmid. […] In other words, trehalose might extend the durations of nucleic acid remaining inside the cells, and therefore prolonged the durations of transgene expression.

[6] = test system: CHO cells; experiment: In vitro transfection of CHO cells with DNA-PEI plus disaccharides, GFP by flow cytometer; format: cell-based, Chinese hamster; conditions: PEI to DNA charge ratio 9:1
Source text: In the following experiments, a polyethyleneimine (PEI)-based vector is used to perform cell transfection. Further, various disaccharides are incorporated into the transfection reagent containing DNA and the vector, and the effects of disaccharides on cell transfection are observed.
(§1) FIG. 6 presents the effects of disaccharides on the transfection efficiency of in vitro cultured CHO cells that are transfected with transfection reagents containing PEI and different disaccharides. The x-axis in FIG. 6 represents the concentrations of different disaccharide in the transfection reagent, and the y-axis represents the GFP expression percentage of the transfected CHO cells detected by a flow cytometer. The GFP expression percentage of the transfected CHO cells is used as an indicator of transfection efficiency. […] The effect of disaccharides in the transfection reagent on transfection efficiency is then analyzed. […] In other words, the cell transfection efficiency is enhanced.

[7] = test system: COS-7 cells; experiment: DNA-PEI transfection with trehalose, GFP expression percentage, COS-7; format: cell-based; conditions: 180 mM trehalose
Source text: as §1
(§2) FIGS. 7A and & 7B show the optimal trehalose concentrations for enhancing the transfection expression mediated by DNA-PEI complexes in different cell lines. The x-axis in FIGS. 7A and 7B […] represents the concentrations of trehalose in the transfection reagent, and the y-axis represents the GFP expression percentage of the cells as an indicator of transfection efficiency The transfection procedures in these experiments of different cell lines are identical to those described previously for CHO cells in experiment 5. […] Moreover, the extents of enhancement on the transfection efficiency depend on the cell lines. […]

[8] = test system: 293 cells; experiment: DNA-PEI transfection with trehalose, GFP expression percentage, 293; format: cell-based; conditions: 180 mM trehalose
Source text: as §1, §2

[9] = test system: MDA-MB-231; experiment: DNA-PEI transfection with trehalose, GFP expression percentage, MDA-MB-231; format: cell-based; conditions: 20 mM trehalose, MDA-MD-231
Source text: as §1, §2

[10] = test system: B16F10; experiment: DNA-PEI transfection with trehalose, GFP expression percentage, B16F10; format: cell-based; conditions: 20 mM trehalose
Source text: as §1, §2

[11] = test system: KB; experiment: DNA-PEI transfection with trehalose, GFP expression percentage, KB; format: cell-based; conditions: 20 mM trehalose
Source text: as §1, §2

[12] = test system: CHO cells; experiment: MTT cellular viability of CHO cells transfected with DNA-PEI complexes plus trehalose; format: cell-based, Chinese hamster; conditions: PEI to DNA charge ratio 9:1; nontransfected CHO cells = 100%
Source text: The x-axis in FIG. 5 represents different trehalose concentrations and the y-axis represents cellular viability analyzed by the MTT assay. In the experiments, the PEI to DNA charge ratio in the transfection reagent is maintained at 9:1, and the viability of nontransfected CHO cells is set at 100%. […] In other words, the incorporation of trehalose mitigates the toxic effect of the transfection reagent.

[13] = test system: CHO cells; experiment: MTT cellular viability of CHO cells transfected with lipid-based carriers plus disaccharides; conditions: DOTAP, DOTAP/Chol, DOTAP/DOPE or LPD vector; nontransfected CHO cells = 100%
Source text: as §3

[14] = DOTAP liposomes, i.v. tail vein, 24 hour, 180 mM disaccharide
[15] = DOTAP liposomes, i.v. tail vein, 24 hour, 330 mM disaccharide

SMILES	effect on transfection efficiency [1]	effect on transfection efficiency (GFP-positive percentage) [2]	effect on transfection efficiency (luminescent intensity, lung) ([3]; 330 mM disaccharide)	luminescent intensity in the lung tissue (RLU per mg of lung tissue protein) [3, 14]	luminescent intensity in the lung tissue (RLU per mg of lung tissue protein) [3, 15]	cellular viability analyzed by the MTT assay [4]	luminescent intensity (RLU per mg of muscular tissue protein) versus control group without disaccharides ([5]; naked plasmid)	further results
O=C[C@H](O)[C@@H](O)[C@H](O[C@@H]1O[C@H](CO)[C@@H](O)[C@H](O)[C@H]1O)[C@H](O)CO [cellobiose]	increases significantly	significantly enhances the transfection efficiency	significant increase in transfection efficiency	increase the luminescent intensity significantly	increases noticeably	improve the cellular viabilities		change of transfection efficiency ([1]; 120 mM cellobiose): doubled; increase of luciferase expression of lung [3, 15]: more than 10 fold
OC[C@H]1O[C@@H](O[C@H]2[C@H](O)[C@@H](O)C(O)O[C@@H]2CO)[C@H](O)[C@@H](O)[C@H]1O (stereo partly drawn) [lactose]	increases significantly	significantly enhances the transfection efficiency				improve the cellular viabilities	higher luminescent intensity	
OC[C@H]1O[C@H](O[C@H]2[C@H](O)[C@@H](O)[C@H](O)O[C@@H]2CO)[C@H](O)[C@@H](O)[C@@H]1O [maltose]	increases significantly					improve the cellular viabilities		
OC[C@H]1O[C@@](CO)(O[C@H]2O[C@H](CO)[C@@H](O)[C@H](O)[C@H]2O)[C@@H](O)[C@@H]1O [sucrose]	increases significantly	significantly enhances the transfection efficiency				improve the cellular viabilities		
OC[C@H]1O[C@H](O[C@H]2O[C@H](CO)[C@@H](O)[C@H](O)[C@H]2O)[C@H](O)[C@@H](O)[C@@H]1O [trehalose]	increases significantly	significantly enhances the transfection efficiency	significant increase in transfection efficiency	increase the luminescent intensity significantly	increases noticeably		higher luminescent intensity	effect on GFP expression percentage (transfection efficiency) [6]: significantly increases the GFP expression percentage; GFP expression percentage ([6]; 180 mM trehalose): about 20%; GFP expression percentage relative to absence of disaccharides ([6]; 180 mM trehalose): about one fold higher; enhancement of percentage of GFP expressed cells [7]: 37%; enhancement of percentage of GFP expressed cells [8]: 32%; enhancement of percentage of GFP positive cells [9]: about 50%; enhancement of percentage of GFP positive cells [10]: ~42%; enhancement of percentage of GFP positive cells [11]: ~13%; cellular viability analyzed by the MTT assay [12]: increases the cellular viability; duration of transgene expression (muscle luminescence over days after injection) ([5]; naked gWiz-luciferase plasmid): higher luminescence intensities for a longer period of time; transfection efficiency versus control group without trehalose at the same amount of plasmid DNA ([5]; naked plasmid, 10 mM trehalose): significantly higher; effect of trehalose concentration on transfection efficiency (muscle luminescent intensity) ([5]; naked plasmid, trehalose between about 10 mM to 12.5 mM): increases significantly; cellular viability analyzed by the MTT assay [13]: improve the cellular viabilities
